From patent US20240083857A1, “2-Methyl-Quinazolines” (Bayer Pharma Aktiengesellschaft, priority 2017, published 2024)

What was measured:
[1] = target: K-Ras^G12C : hSOS1 interaction (Homo sapiens, UniProt Q07889); test: Biochemical assay 1: K-Ras^G12C interaction assay with hSOS1 (HTRF); format: binding; details: E-notation values; unit inferred; read-out: Assay 1 (KRAS-SOS interaction) IC50
[2] = target: Epidermal Growth Factor Receptor (EGFR) (Homo sapiens (Human), UniProt P00533); test: EGFR kinase assay (TR-FRET); format: biochemical; details: E-notation values; unit inferred; read-out: EGFR-assay IC50
Chain of Epidermal Growth Factor Receptor (EGFR) (P00533 25-1210): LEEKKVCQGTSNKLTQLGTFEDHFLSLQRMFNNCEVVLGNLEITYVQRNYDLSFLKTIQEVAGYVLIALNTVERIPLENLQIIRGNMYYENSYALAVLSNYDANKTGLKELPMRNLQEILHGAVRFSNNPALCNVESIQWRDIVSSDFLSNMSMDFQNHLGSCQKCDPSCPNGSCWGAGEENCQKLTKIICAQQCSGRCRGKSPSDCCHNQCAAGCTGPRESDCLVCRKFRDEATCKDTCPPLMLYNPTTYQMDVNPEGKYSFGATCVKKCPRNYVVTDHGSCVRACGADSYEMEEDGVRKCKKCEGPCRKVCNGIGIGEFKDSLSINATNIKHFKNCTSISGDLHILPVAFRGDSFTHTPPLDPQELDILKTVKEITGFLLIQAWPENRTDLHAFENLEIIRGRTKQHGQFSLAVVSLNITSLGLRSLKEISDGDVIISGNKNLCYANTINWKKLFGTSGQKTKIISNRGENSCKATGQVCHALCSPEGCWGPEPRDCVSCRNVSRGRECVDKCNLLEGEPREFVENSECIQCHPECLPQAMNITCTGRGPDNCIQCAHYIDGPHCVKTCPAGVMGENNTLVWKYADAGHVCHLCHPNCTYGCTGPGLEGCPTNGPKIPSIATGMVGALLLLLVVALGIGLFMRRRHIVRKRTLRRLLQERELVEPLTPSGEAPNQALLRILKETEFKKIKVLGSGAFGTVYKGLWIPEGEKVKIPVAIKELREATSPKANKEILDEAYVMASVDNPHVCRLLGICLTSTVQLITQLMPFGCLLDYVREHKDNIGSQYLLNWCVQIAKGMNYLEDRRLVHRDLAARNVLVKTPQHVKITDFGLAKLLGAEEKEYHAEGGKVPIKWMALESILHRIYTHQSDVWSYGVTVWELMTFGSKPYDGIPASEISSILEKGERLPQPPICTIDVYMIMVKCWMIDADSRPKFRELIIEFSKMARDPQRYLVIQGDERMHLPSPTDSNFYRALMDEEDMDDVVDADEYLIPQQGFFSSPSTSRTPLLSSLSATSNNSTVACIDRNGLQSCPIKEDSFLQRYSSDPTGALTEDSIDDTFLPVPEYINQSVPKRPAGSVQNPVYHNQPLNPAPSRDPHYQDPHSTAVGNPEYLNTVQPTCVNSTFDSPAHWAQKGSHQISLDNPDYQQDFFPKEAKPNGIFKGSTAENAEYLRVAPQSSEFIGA
In short: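 EGFR purified from A431 cells was preincubated with compound 15 min at 22° C in pH 7.0 Hepes buffer with MgCl2, MnCl2 and vanadate before reaction with a biotinylated peptide. After EDTA stop, phosphopeptide was detected by TR-FRET (anti-phosphotyrosine Tb-cryptate, streptavidin-XL665) as the 665/620 nm emission ratio.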

SMILES	IC50 [1]	IC50 [2]
COc1cc2nc(C)nc(NC(C)c3cccc(OCc4ccccc4)c3)c2cc1OC (centres unmarked) [Example 389, N-{1-[3-(benzyloxy)phenyl]ethyl}-6,7-dimethoxy-2-methylquinazolin-4-amine]	6.69 µM	> 20 µM
Cc1nc(N[C@H](C)c2cccc(Cl)c2)c2cc(C(C)(C)O)ccc2n1 [Example 392, 2-(4-{[(1R)-1-(3-chlorophenyl)ethyl]amino}-2-methylquinazolin-6-yl)propan-2-ol]	0.338 µM	> 20 µM
COc1cc2nc(C)nc(N[C@H](C)c3cccc(-c4ccccc4CC(N)=O)c3)c2cc1OC [Example 393, 2-(3′-{(1R)-1-[(6,7-dimethoxy-2-methylquinazolin-4-yl)amno]ethyl}biphenyl-2-yl)acetamide]	0.244 µM	> 20 µM
COc1cc2nc(C)nc(NC(C)c3ccc(-c4ccccc4CC(N)=O)s3)c2cc1OC (centres unmarked) [Example 394, 2-[2-(5-{1-[(6,7-dimethoxy-2-methylquinazolin-4-yl)amino]ethyl}thiophen-2-yl)phenyl]acetamide]	0.405 µM	> 20 µM
COc1cc2nc(C)nc(NC(C)c3ccc(-c4ccc(O)nc4)s3)c2cc1OC (centres unmarked) [Example 395, 5-(5-{1-[(6,7-dimethoxy-2-methylquinazolin-4-yl)amino]ethyl}thiophen-2-yl)pyridin-2-ol]	0.984 µM	7.07 µM
COc1cc(C)c2nc(C)nc(N[C@H](C)c3cccc(Cl)c3)c2c1 [Example 396, N-[(1R)-1-(3-chlorophenyl)ethyl]-6-methoxy-2,8-dimethylquinazolin-4-amine]	2.24 µM	> 20 µM
COc1cc2nc(C)nc(NC(C)c3ccc(-c4cccc(Cl)c4CN)s3)c2cc1OC (centres unmarked) [Example 397, N-[1-{5-[2-(aminomethyl)-3-chlorophenyl]thiophen-2-yl}ethyl]-6,7-dimethoxy-2-methylquinazolin-4-amine]	0.297 µM	> 20 µM
COc1cc2nc(C)nc(NC(C)c3ccc(-c4ccc(Cl)cc4CN)s3)c2cc1OC (centres unmarked) [Example 398, N-[1-{5-[2-(aminomethyl)-4-chlorophenyl]thiophen-2-yl}ethyl]-6,7-dimethoxy-2-methylquinazolin-4-amine]	0.104 µM	> 20 µM
COc1cc2nc(C)nc(NC(C)c3cc(C)c(-c4ccc(F)cc4CN)s3)c2cc1OC (centres unmarked) [Example 399, N-(1-{5-[2-(aminomethyl)-4-fluorophenyl]-4-methyl-2-thienyl}ethyl)-6,7-dimethoxy-2-methylquinazolin-4-amine]	0.333 µM	> 20 µM
COc1cc2nc(C)nc(NC(C)c3cc(C)c(-c4ccccc4CN(C)C)s3)c2cc1OC (centres unmarked) [Example 400, N-[1-(5-{2-[(dimethylamino)methyl]phenyl}-4-methyl-2-thienyl)ethyl]-6,7-dimethoxy-2-methylquinazolin-4-amine]	0.0787 µM	> 20 µM
COc1cc2nc(C)nc(NC(C)c3cc(C)c(-c4ccccc4CN(C)CCO)s3)c2cc1OC (centres unmarked) [Example 401, 2-{[2-(5-{1-[(6,7-dimethoxy-2-methylquinazolin-4-yl)amino]ethyl}-3-methyl-2-thienyl)benzyl](methyl)amino}ethanol]	0.0763 µM	> 20 µM
CNCc1ccccc1-c1sc(C(C)Nc2nc(C)nc3cc(OC)c(OC)cc23)cc1C (centres unmarked) [Example 402, 6,7-di methoxy-2-methyl-N-[1-(4-methyl-5-{2-[(methylamino)methyl]phenyl}thiophen-2-yl)ethyl]quinazolin-4-amine]	0.0828 µM	> 20 µM
COc1cc2nc(C)nc(NC(C)c3ccc(-c4ccccc4C(O)CO)s3)c2cc1OC (centres unmarked) [Example 403]	0.442 µM	> 20 µM
Cc1ccc2nc(C)nc(N[C@H](C)c3cccc(Cl)c3)c2c1 [Example 404, N-[(1R)-1-(3-chlorophenyl)ethyl]-2,6-dimethylquinazolin-4-amine]	4.68 µM	> 20 µM
Cc1nc(N[C@H](C)c2cccc(Cl)c2)c2cc(-c3cn[nH]c3)ccc2n1 [Example 405, N-[(1R)-1-(3-chlorophenyl)ethyl]-2-methyl-6-(1H-pyrazol-4-yl)quinazolin-4-amine]	1.11 µM	> 20 µM
Cc1nc(N[C@H](C)c2cccc(Cl)c2)c2cc(-c3cnn(C)c3)ccc2n1 [Example 406, N-[(1R)-1-(3-chlorophenyl)ethyl]-2-methyl-6-(1-methyl-1H-pyrazol-4-yl)quinazolin-4-amine]	0.727 µM	> 20 µM
Cc1nc(N[C@H](C)c2cccc(Cl)c2)c2cc(C3CC3)ccc2n1 [Example 407, N-[(1R)-1-(3-chlorophenyl)ethyl]-6-cyclopropyl-2-methylquinazolin-4-amine]	1.25 µM	> 20 µM
COc1cc2nc(C)nc(NC(C)c3ccc(-c4c(Cl)cccc4CNC(=O)OC(C)(C)C)s3)c2cc1OC (centres unmarked) [Example 408, tert-butyl [3-chloro-2-(5-{1-[(6,7-dimethoxy-2-methylquinazolin-4-yl)amino]ethyl}thiophen-2-yl)benzyl]carbamate]	0.533 µM	> 20 µM
COc1cc2nc(C)nc(NC(C)c3ccc(-c4c(Cl)cccc4CN)s3)c2cc1OC (centres unmarked) [Example 409, N-[1-{5-[2-(aminomethyl)-6-chlorophenyl]thiophen-2-yl}ethyl]-6,7-dimethoxy-2-methylquinazolin-4-amine]	0.0492 µM	> 20 µM
COc1cc2nc(C)nc(NC(C)c3ccc(-c4ccnc(O)c4)s3)c2cc1OC (centres unmarked) [Example 410, 4-(5-{1-[(6,7-dimethoxy-2-methylquinazolin-4-yl)amino]ethyl}-2-thienyl)pyridin-2-ol]	4.23 µM	> 20 µM
COc1cc2nc(C)nc(NC(C)c3ccc(-c4ccccc4C4CC(=O)N4)s3)c2cc1OC (centres unmarked) [Example 411, 4-[2-(5-{1-[(6,7-dimethoxy-2-methylquinazolin-4-yl)amino]ethyl}thiophen-2-yl)phenyl]azetidin-2-one]	14.5 µM	> 20 µM
COc1cc2nc(C)nc(NC(C)c3ccc(-c4ccc(C#N)cc4CN(C)C)s3)c2cc1OC (centres unmarked) [Example 413, 4-(5-{1-[(6,7-dimethoxy-2-methylquinazolin-4-yl)amino]ethyl}thiophen-2-yl)-3-[(dimethylamino)methyl]benzonitrile]	0.223 µM	> 20 µM
Cc1nc(NC(C)c2ccc(Br)s2)c2cc(N3CCC(N(C)C)C3)ccc2n1 (centres unmarked) [Example 414, N-[1-(5-bromothiophen-2-yl)ethyl]-6-[3-(dimethylamino)pyrrolidin-1-yl]-2-methylquinazolin-4-amine]	1.38 µM	> 20 µM
Cc1nc(NC(C)c2ccc(Br)s2)c2cc(N3CCN(C)CC3)ccc2n1 (centres unmarked) [Example 416, N-[1-(5-bromothiophen-2-yl)ethyl]-2-methyl-6-(4-methylpiperazin-1-yl)quinazolin-4-amine]	0.867 µM	> 20 µM
Cc1nc(NC(C)c2ccc(-c3ccccc3CN(C)C)s2)c2cc(N3CCN(C)CC3)ccc2n1 (centres unmarked) [Example 417, N-[1-(5-{2-[(dimethylamino)methyl]phenyl}thiophen-2-yl)ethyl]-2-methyl-6-(4-methylpiperazin-1-yl)quinazolin-4-amine]	0.0455 µM	> 20 µM
